Earlier results as cited in PMC7111419 (European Journal of Medicinal Chemistry, 2019).
Like-named read-outs stand apart in the source and are kept apart here.

How the values were obtained:
βGLU = details: cited from earlier work
E. coli cells = details: 100 μM; cited from earlier work
human liver-derived βGLU = details: 1 mM; cited from earlier work
βGLU in breast milk = details: 10 μM; cited from earlier work
female Wistar rats = details: i.p. pre or cotreatment, 3 mg/ml, 10 mg/ml or 10 mg/0.5 ml, 6 days; cited from earlier work
SENCAR mice = details: cited from earlier work
male albino Wistar rats = details: 7.5 mg/kg body weight/day intragastric, 7 days; cited from earlier work
E. coli βGLU = details: cited from earlier work
Wistar rats = details: 0.8 μg inhibitor, 3 mg/kg diclofenac; cited from earlier work
rat neutrophils = details: read-out: IC50, βGLU release; cited from earlier work
neutrophil-derived βGLU = details: 1 μM; cited from earlier work
salivary βGLU = details: 16 subjects with aggressive periodontitis; cited from earlier work

In the case of `O=C(Cn1c(-c2ccccn2)nc2ccccc21)c1ccc(Cl)cc1` [Compound 4-Cl], the IC50 (βGLU) is listed as 32.1 µM and the “cytotoxicity to E. coli cells” value (E. coli cells) is listed as “cytotoxicity”.
For `O=C(O)[C@@H](O)[C@H]1OC(=O)[C@H](O)[C@H]1O` [Compound 5, D-saccharic acid-1,4-lactone], the IC50 (βGLU; value recurrent in literature) is given as ~40 µM, the “inhibition of hydrolytic action on quercetin glucuronides” value (human liver-derived βGLU) is given as “completely inhibited” and the “inhibition of βGLU in breast milk” value (βGLU in breast milk) is given as “over 90%”. For the same compound, the “severity of CPT-11 induced small-intestine mucosal damage” value (female Wistar rats) was “reduced the severity” and the “reduction of DMBA-induced oxidative DNA damage and mutations in codon 61 of Ha-ras gene” value (SENCAR mice) was “up to 78%”.
In the case of `Cc1ccc(C(C)C)c(O)c1` [Compound 54, thymol], the “activities of lysosomal enzymes (βGLU, β-galactosidase, cathepsin B and D) in serum and heart” value (male albino Wistar rats) is given as “potently inhibited to near-normal”.
For `COc1ccc(NC(=S)N(CCO)Cc2cc3cc(C)cc(C)c3[nH]c2=O)cc1` [Compound 152], the “fold increased potency vs glucaro-δ-lactam 61” value (E. coli βGLU) is given as 100 fold and the “fold reduction in severity of diclofenac-induced anastomotic leakage” value (Wistar rats) is given as 2 fold.
For `C[C@@H]1C(=O)O[C@H]2[C@H](O)[C@@]34[C@H]5C[C@@H](C(C)(C)C)[C@]36[C@@H](OC(=O)[C@@H]6O)O[C@@]4(C(=O)O5)[C@@]12O` [ginkgolide B], the IC50 (rat neutrophils) is listed as 6.63 µM.
In the case of `O=C(O)c1ccccc1O` [salicylic acid, reference compound], the inhibition (βGLU; 1 mM) is listed as 24.77% and the inhibition (neutrophil-derived βGLU) is listed as 25%.
For doxycycline hyclate, the “effect on salivary βGLU activity” value (salivary βGLU) is given as “inefficient”.
